Measured values from patent US3970648A, “2-[2-(5-Nitro-2-furyl)vinyl]-4-(anilino)quinazolines” (Diamond Shamrock Corporation, priority 1974, dated 1976).

Key:
Format in all cases: cell-based
Streptococcus agalactiae = test: Bactericide test, Streptococcus agalactiae (agar streak plate); settings: Streptococcus agalactiae
Excerpt: (§1) Test formulations were examined for bactericidal and/or bacteriostatic activity against the test organisms shown in Tables A and B. These organisms were chosen as being representative of commercially important pathogens affecting animal agriculture. The antibiotic chlortetracycline was chosen as a positive control, since it has a broad spectrum of activity against a large number of organisms, and its activity can be used for comparative purposes.
(§2) Basic test formulations of the product of Examples I, II, III, and of chlortetracycline were prepared by dissolving 16 mg (0.016 g) in 2.0 ml of stock emulsifier solution (0.25% Triton X-155 in acetone by volume) and making each solution up to 50 ml with deionized water. The concentration of the test compound in the basic formulation was 320 ppm. Lower concentrations of the test compound were obtained by diluting the basic formulation with a 4% solution of the stock emulsifier in deionized water so that each dilution in the series differed only in test compound content.
(§3) Nutrient-tryptic soy agar (NTA) consisting of 2.0% Difco Bactoagar 0.8% nutrient broth (Difco), and 0.5% tryptic soy broth (Difco) was prepared and sterilized by autoclaving. A 2 ml aliquot of each test formulation was added to 8 ml of molten NTA. This mixture was then plated in a sterile polystyrene petri dish (100 × 15 mm). After the agar was set, suspensions of each of the test organisms were simultaneously streaked onto the surface of the agar. The inoculated plates were incubated for 48 hr at 28°C. The inhibition of growth of each organism was rated by visual comparison with the organism developing on non-treated agar. Growth inhibition reported as per cent control was rated in three categories as follows: 0% control, growth equivalent to that on non-treated agar; 50% control, sparse development and separated colonies; 100% control, no visible growth or development of colonies.

Escherichia coli = test: Bactericide test, Escherichia coli (agar streak plate)
Excerpt: as §1, §2, §3
(§4) Test formulations of the product of Example IV were examined for bactericidal and/or bacteriostatic activity against the test organisms shown in Table B using the Bactericide Test described in Example V. The inhibition of organism growth with each diluted test formulation was rated visually by comparison with the organism developing on a non-treated control agar plate. Growth inhibition reported as per cent control was rated in three categories as follows: 0% control, growth equivalent to that on non-treated agar; 50% control is sparse development and separated colonies; and 100% control, development of individual colonies was not apparent.

Salmonella gallinarum = test: Bactericide test, Salmonella gallinarum (agar streak plate); settings: Salmonella enterica, GALLINARUM
Excerpt: as §1, §2, §3, §4

Salmonella typhimurium = test: Bactericide test, Salmonella typhimurium (agar streak plate); settings: Salmonella enterica, TYPHIMURIUM
Excerpt: as §1, §2, §3

[1] = test system: Erysipelothrix rhusiopathiae; test: Bactericide test, Erysipelothrix rhusiopathiae (agar streak plate); settings: Erysipelothrix rhusiopathiae
Excerpt: as §1, §2, §3

Salmonella cholerasuis = test: Bactericide test, Salmonella cholerasuis (agar streak plate); settings: Salmonella
Excerpt: as §1, §2, §3, §4

[2] = test system: Bordetella bronchiseptica; test: Bactericide test, Bordetella bronchiseptica (agar streak plate); settings: Bordetella bronchiseptica
Excerpt: as §1, §2, §3

Streptococcus faecalis = test: Bactericide test, Streptococcus faecalis (agar streak plate); settings: Enterococcus faecalis
Excerpt: as §1, §2, §3, §4

Streptococcus group E = test: Bactericide test, Streptococcus group E (agar streak plate)
Excerpt: as §1, §2, §3

Staphylococcus aureus = test: Bactericide test, Staphylococcus aureus (agar streak plate); settings: Staphylococcus aureus
Excerpt: as §1, §2, §3, §4

Vibrio coli = test: Bactericide test, Vibrio coli (agar streak plate); settings: Campylobacter coli
Excerpt: as §1, §2, §3

`CN(C)[C@@H]1C(O)=C(C(N)=O)C(=O)[C@@]2(O)C(O)=C3C(=O)c4c(O)ccc(Cl)c4[C@@](C)(O)[C@H]3C[C@@H]12` [Chlortetracycline, reference compound] was tested, and the inhibition at 1 ppm (Streptococcus agalactiae) was 0%, the inhibition at 4 ppm (Streptococcus agalactiae) was 100% and the inhibition at 16 ppm (Streptococcus agalactiae) was 100%. It also gave an inhibition at 64 ppm (Streptococcus agalactiae) of 100%, an inhibition at 1 ppm (Escherichia coli) of 0% and an inhibition at 4 ppm (Escherichia coli) of 0%. For the same compound, the inhibition at 16 ppm (Escherichia coli) was 100%, the inhibition at 64 ppm (Escherichia coli) was 100% and the inhibition at 1 ppm (Salmonella gallinarum; 1 ppm) was 0%. It also gave an inhibition at 4 ppm (Salmonella gallinarum; 4 ppm) of 0%, an inhibition at 16 ppm (Salmonella gallinarum; 16 ppm) of 100% and an inhibition at 64 ppm (Salmonella gallinarum; 64 ppm) of 100%. It also gave an inhibition at 1 ppm (Salmonella typhimurium) of 0%, an inhibition at 4 ppm (Salmonella typhimurium) of 0% and an inhibition at 16 ppm (Salmonella typhimurium) of 0%. For the same compound, the inhibition at 64 ppm (Salmonella typhimurium) was 0%, the inhibition at 1 ppm ([1]; 1 ppm) was 0% and the inhibition at 4 ppm ([1]; 4 ppm) was 10%. It also gave an inhibition at 16 ppm ([1]; 16 ppm) of 100%, an inhibition at 64 ppm ([1]; 64 ppm) of 100% and an inhibition at 1 ppm (Salmonella cholerasuis) of 0%. It also gave an inhibition at 4 ppm (Salmonella cholerasuis) of 0%, an inhibition at 16 ppm (Salmonella cholerasuis) of 100% and an inhibition at 64 ppm (Salmonella cholerasuis) of 100%. It also gave an inhibition at 1 ppm [2] of 0%, an inhibition at 4 ppm [2] of 0% and an inhibition at 16 ppm [2] of 0%. It also gave an inhibition at 64 ppm [2] of 100%, an inhibition at 1 ppm (Streptococcus faecalis) of 100% and an inhibition at 4 ppm (Streptococcus faecalis) of 100%. It also gave an inhibition at 16 ppm (Streptococcus faecalis) of 100%, an inhibition at 64 ppm (Streptococcus faecalis) of 100% and an inhibition at 1 ppm (Streptococcus group E) of 0%. It also gave an inhibition at 4 ppm (Streptococcus group E) of 0%, an inhibition at 16 ppm (Streptococcus group E) of 100% and an inhibition at 64 ppm (Streptococcus group E) of 100%. The inhibition at 1 ppm (Staphylococcus aureus) was 0%, the inhibition at 4 ppm (Staphylococcus aureus) was 0% and the inhibition at 16 ppm (Staphylococcus aureus) was 100%. For the same compound, the inhibition at 64 ppm (Staphylococcus aureus) was 100%, the inhibition at 1 ppm (Vibrio coli; 1 ppm) was 0% and the inhibition at 4 ppm (Vibrio coli; 4 ppm) was 100%. The inhibition at 16 ppm (Vibrio coli; 16 ppm) was 100% and the inhibition at 64 ppm (Vibrio coli; 64 ppm) was 100%.
